Assay results taken from publication PMC11054143, “^68Ga-DOTA-D-Alanine-BoroPro Radiotracer for Imaging of the Fibroblast Activation Protein in Malignant and Non-Malignant Diseases” (Pharmaceutics, 2024).

Biological target: T1, fibroblast activation protein (FAP) (Homo sapiens, UniProt Q12884)
T1 sequence (Q12884 1-760): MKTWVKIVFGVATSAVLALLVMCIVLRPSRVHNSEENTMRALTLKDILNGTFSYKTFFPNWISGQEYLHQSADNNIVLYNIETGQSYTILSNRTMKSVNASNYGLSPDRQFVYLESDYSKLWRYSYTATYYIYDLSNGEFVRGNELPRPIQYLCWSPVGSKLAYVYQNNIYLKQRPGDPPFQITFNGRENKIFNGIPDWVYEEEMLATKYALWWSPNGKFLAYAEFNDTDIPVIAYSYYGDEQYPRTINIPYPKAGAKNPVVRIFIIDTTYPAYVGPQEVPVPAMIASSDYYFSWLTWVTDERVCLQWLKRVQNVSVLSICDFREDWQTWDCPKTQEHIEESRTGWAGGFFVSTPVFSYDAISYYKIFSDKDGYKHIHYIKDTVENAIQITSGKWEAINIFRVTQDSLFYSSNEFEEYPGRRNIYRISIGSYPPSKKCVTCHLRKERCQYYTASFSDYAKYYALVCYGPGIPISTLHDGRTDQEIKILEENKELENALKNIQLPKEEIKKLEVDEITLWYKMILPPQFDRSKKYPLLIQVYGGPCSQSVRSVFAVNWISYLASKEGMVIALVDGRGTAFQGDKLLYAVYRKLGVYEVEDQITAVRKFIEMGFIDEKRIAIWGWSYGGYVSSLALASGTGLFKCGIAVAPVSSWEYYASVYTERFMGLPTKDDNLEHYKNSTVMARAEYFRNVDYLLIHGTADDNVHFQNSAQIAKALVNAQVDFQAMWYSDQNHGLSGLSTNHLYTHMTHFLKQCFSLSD
Assay: unlabelled competitor ([…] concentrations) displacing […]-iFAP from HCT116 cells
Format: cell-based

SMILES: C[C@H](NC(=O)c1ccc(NNC(=S)Nc2ccc(CC3CN(CC(=O)O)CCN(CC(=O)O)CCN(CC(=O)O)CCN3CC(=O)O)cc2)nc1)C(=O)N1CCC[C@@H]1B(O)O (stereo partly drawn) [DOTA-iFAP, 2,2′,2″,2‴-(2-(4-(2-(5-(((S)-1-((S)-2-boronopyrrolidin-1-yl)-1-oxopropan-2-yl)carbamoyl)pyridin-2-yl)hydrazine-1-carbothioamido)benzyl)-1,4,7,10-tetraazacyclododecane-1,4,7,10-tetrayl)tetraacetic acid]
- IC50: 0.57 nM
